# Results published in patent US20050075361A1 (priority 2002, published 2005).
# Like-named read-outs stand apart in the source and are kept apart here.
# Tests used:
# male Sprague-Dawley rats = details: rat, in vivo
# [1] = cited from earlier work
# [2] = parenteral, weight basis; cited from earlier work
# [3] = cited from earlier work; remark: listed apart in the source
# [4] = intravenous, single dose of about 0.3 mg
Compound,Analgesic duration (male Sprague-Dawley rats),duration of analgesic action (male Sprague-Dawley rats) [h],mean duration of analgesia ([1]; single intramuscular or intravenous dose of 0.2 to 0.3 mg or 2 to 4 μg/kg),Analgesic duration (male Sprague-Dawley rats; sc),duration of action (male Sprague-Dawley rats; sc) [h],duration of action ([1]; intramuscular or intravenous injection) [h],analgesic potency relative to meperidine [2],analgesic potency relative to pentazocine [2],Cmax ([3]; 0.4 mg sublingual dose) [ng/mL],Tmax ([3]; 0.4 mg sublingual dose) [min],systemic availability ([3]; 0.4 mg sublingual dose) [%],Total plasma clearance ([3]; conscious postoperative patients),mean peak plasma buprenorphine concentration ([3]; intramuscular second 0.3-mg dose 3 hours after initial intravenous dose),"plasma concentration ([3]; intramuscular second 0.3-mg dose, after about 3 hours)","plasma concentration ([3]; intravenous about 0.3 mg, after about 5 minutes)","plasma concentration ([3]; intravenous about 0.3 mg, after about 3 hours)","mean peak plasma drug concentration [3, 4]","time of peak plasma concentration [3, 4] [min]"
"CO[C@@]12CC[C@@]3(C[C@@H]1[C@](C)(O)C(C)(C)C)[C@H]1Cc4ccc(O)c5c4[C@@]3(CCN1CC1CC1)[C@H]2O5.Cl [Buprenorphine HCl, buprenorphine hydrochloride]",5 h,3 to 5,six,–,–,–,–,–,–,–,–,–,–,–,–,–,–,–
"CO[C@@]12CCC3(C[C@@H]1C(C)(O)C(C)(C)C)[C@H]1Cc4ccc(O)c5c4[C@@]3(CCN1CC1CC1)[C@H]2O5 (stereo partly drawn) [Buprenorphine base, (5α,7α(S)-17-cyclopropyl-methyl)-α-(1,1-dimethylethyl)-4,5-epoxy-18,19-dihydro-3-hydroxy-6-methoxy-α-methyl-6,14-ethenomorphinan-7-methanol]",48; 48; 50 h,48 to 50,–,48; 50; 48 h,48 to 50,–,–,–,–,–,–,–,–,–,–,–,–,–
"CO[C@@]12CCC3(C[C@@H]1C(C)(O)C(C)(C)C)[C@H]1Cc4ccc(O)c5c4[C@@]3(CCN1CC1CC1)[C@H]2O5 (stereo partly drawn) [Buprenorphine, (5α,7α(S)-17-cyclopropyl-methyl)-α-(1,1-dimethylethyl)-4,5-epoxy-18,19-dihydro-3-hydroxy-6-methoxy-α-methyl-6,14-ethenomorphinan-7-methanol]",–,–,–,–,–,6 to 8,about 600 times,about 200 times,0.5 ± 0.06,210 ± 40,57.7±6,approximately 0.28 L/minute,about 3.6 ng/mL,about 0.4 ng/mL,about 9 ng/mL,about 0.4 ng/mL,about 18 ng/mL,≤ 2
